# Measured values taken from paper PMC10617569, “The Ustilago maydis AA10 LPMO is active on fungal cell wall chitin” (Applied and Environmental Microbiology, 2023).
# Target: T1, UmAA10_cd (Mycosarcoma maydis, UniProt A0A0D1CHL0)
# T1 construct: gene UMAG_05439; catalytic domain only; C-terminal extension removed between Gly203 and Gly204; C-terminal (His)6-tag; made in Pichia pastoris SuperMan5; copper loaded
# Assay: Amplex red / HRP assay of H2O2 production, absorbance at […] nm
# Assay type: biochemical
# Conditions: reductant of the LPMO oxidase reaction, 50 µM ascorbic acid with O2; 1 µM enzyme; sodium phosphate 50 mM pH 7.0; 23°C
# T1 sequence (A0A0D1CHL0 33-203): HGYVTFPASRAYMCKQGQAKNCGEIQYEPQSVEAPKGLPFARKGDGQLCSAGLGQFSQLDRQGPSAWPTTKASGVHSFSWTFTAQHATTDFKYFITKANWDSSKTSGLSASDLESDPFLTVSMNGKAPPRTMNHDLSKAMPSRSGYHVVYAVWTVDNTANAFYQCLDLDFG
structure (smiles),measurement,value
O=C1O[C@H]([C@@H](O)CO)C(O)=C1O [ascorbic acid],"Amplex red / HRP assay of H2O2 production, absorbance at 575 nm","Using ascorbic acid (AscA) as a reductant, we found that UmAA10_cd produces H2O2"
